Measurements as given in ChEMBL document CHEMBL2401685 (Bioorg Med Chem Lett, 2013).
pIC50: −log10 of the molar value. The source made the active and inactive calls. The rule behind the calls is not given here.

Experiments:
[1] = molecular target: T1, 11-beta-hydroxysteroid dehydrogenase type 2 (Rattus norvegicus) (UniProt P50233); assay: Inhibition of 11beta-HSD2 in rat kidney microsomes using [3H]-CORT as substrate assessed as formation of 11-DHC at 100 uM after 30 mins by radiometric analysis relative to control; details: Microsome
T1 sequence (whole entry): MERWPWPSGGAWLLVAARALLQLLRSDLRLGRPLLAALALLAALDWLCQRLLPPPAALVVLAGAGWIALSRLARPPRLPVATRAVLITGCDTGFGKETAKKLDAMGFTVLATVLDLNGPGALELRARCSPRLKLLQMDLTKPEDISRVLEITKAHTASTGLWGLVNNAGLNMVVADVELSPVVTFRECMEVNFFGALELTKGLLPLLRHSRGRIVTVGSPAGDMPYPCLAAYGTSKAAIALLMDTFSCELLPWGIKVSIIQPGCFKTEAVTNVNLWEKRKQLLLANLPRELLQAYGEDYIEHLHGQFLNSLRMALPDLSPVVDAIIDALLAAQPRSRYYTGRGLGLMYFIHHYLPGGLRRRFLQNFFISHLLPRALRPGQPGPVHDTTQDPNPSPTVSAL

J774.A1 = assay: Antiinflammatory activity in mouse J774A1 cells assessed as LPS-induced TNFalpha production at 10 uM incubated 2 hrs prior to LPS challenge measured after 24 hrs by ELISA relative to vehicle-treated control; assay type: functional
[2] = molecular target: T2, 11-beta-hydroxysteroid dehydrogenase type 2 (Homo sapiens) (UniProt P80365); assay: Inhibition of 11beta-HSD2 in human kidney microsomes using [3H]-cortisol as substrate assessed as formation of cortisone at 100 uM after 30 mins by radiometric analysis relative to control; details: Microsome
T2 sequence (whole entry): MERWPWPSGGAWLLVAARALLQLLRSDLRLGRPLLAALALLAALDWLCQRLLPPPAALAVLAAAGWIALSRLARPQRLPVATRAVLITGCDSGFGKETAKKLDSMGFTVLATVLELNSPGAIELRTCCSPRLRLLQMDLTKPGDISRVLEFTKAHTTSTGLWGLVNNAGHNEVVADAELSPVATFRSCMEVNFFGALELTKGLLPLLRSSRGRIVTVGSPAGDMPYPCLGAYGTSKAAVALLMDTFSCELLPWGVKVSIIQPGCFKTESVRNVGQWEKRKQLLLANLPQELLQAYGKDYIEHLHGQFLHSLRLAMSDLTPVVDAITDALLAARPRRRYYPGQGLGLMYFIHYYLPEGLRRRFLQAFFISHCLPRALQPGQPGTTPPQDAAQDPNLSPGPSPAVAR

[3] = molecular target: T3, 11-beta-hydroxysteroid dehydrogenase 1 (Homo sapiens, UniProt P28845); assay: Inhibition of 11beta-HSD1 in human liver microsomes using [3H]-cortisone as substrate assessed as formation of cortisol at 100 uM after 60 to 90 mins by radiometric analysis relative to control; details: Microsome
[4] = molecular target: 11-beta-hydroxysteroid dehydrogenase 1 (Rattus norvegicus) (UniProt P16232); assay: Inhibition of 11beta-HSD1 in Sprague-Dawley rat leydig cells […] relative to control; details: 100 uM
[5] = molecular target: 11-beta-hydroxysteroid dehydrogenase 1 (Rattus norvegicus) (UniProt P16232); assay: Inhibition of 11beta-HSD1 in rat testis microsomes using [3H]-11-DHC as substrate assessed as formation of CORT at 100 uM after 60 to 90 mins by radiometric analysis relative to control; details: Microsome
[6] = molecular target: T3, 11-beta-hydroxysteroid dehydrogenase 1; assay: Inhibition of human 11beta-HSD1 transfected in CHOP cells at 100 uM relative to control; assay type: cell-based
[7] = molecular target: 11-beta-hydroxysteroid dehydrogenase 1 (Rattus norvegicus, UniProt P16232); assay: Inhibition of 11beta-HSD1 in Sprague-Dawley rat leydig cells […]
11-beta-hydroxysteroid dehydrogenase 1 (Rattus norvegicus, UniProt P16232), sequence (P16232 whole entry): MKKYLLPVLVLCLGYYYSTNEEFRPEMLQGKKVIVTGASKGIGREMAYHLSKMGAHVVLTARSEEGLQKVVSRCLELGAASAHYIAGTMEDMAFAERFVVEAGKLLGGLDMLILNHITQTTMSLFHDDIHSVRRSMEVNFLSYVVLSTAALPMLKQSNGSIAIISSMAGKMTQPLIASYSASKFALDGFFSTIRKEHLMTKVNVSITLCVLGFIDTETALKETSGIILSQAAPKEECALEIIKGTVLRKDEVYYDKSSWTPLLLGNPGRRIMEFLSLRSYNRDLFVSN

11-beta-hydroxysteroid dehydrogenase 1 (Rattus norvegicus), sequence (P16232 whole entry, looked up): as the sequence (P16232 whole entry) above
T3 sequence (P28845 whole entry, looked up): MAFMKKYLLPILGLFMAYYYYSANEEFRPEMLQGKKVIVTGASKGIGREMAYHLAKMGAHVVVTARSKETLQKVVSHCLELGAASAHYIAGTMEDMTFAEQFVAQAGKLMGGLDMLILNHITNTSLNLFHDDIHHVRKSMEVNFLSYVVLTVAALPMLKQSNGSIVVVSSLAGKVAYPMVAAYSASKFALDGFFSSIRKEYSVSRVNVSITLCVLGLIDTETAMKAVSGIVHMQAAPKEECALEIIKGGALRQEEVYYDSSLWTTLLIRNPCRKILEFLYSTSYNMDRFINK

Compound | inhibition [1] [%] | inhibition [2] [%] | inhibition [3] [%] | inhibition [4] [%] | inhibition [5] [%] | inhibition [6] [%] | pIC50 [7] | inhibition (J774.A1)
CN(C)c1ccc(/C=C/C(=O)/C=C/c2ccc(N(C)C)cc2)cc1 | 13 | 0 | 24 | 10 | 0 | 29 |  | inactive
CN(C)c1ccc(/C=C2\CCC/C(=C\c3ccc(N(C)C)cc3)C2=O)cc1 | 20 | 21 | 14 | 37 | 16 | 26 |  | inactive
O=C1/C(=C/c2cccc(C(F)(F)F)c2F)CC/C1=C\c1cccc(C(F)(F)F)c1F | 5 | 0 | 23 | 22 | 2 | 24 |  | 
CN(C)CCCOc1ccc(/C=C2\CC/C(=C\c3ccc(OCCCN(C)C)cc3)C2=O)cc1 | 12 | 24 | 15 |  | 2 | 49 | 5.38 | 
COc1cc(/C=C2\CC/C(=C\c3ccc(O)c(OC)c3)C2=O)ccc1O | 34 | 13 | 49 | 19 | 52 | 17 |  | 
O=C1/C(=C/c2ccc(O)cc2)CC/C1=C\c1ccc(O)cc1 | 17 | 0 | 39 | 21 | 32 | 12 |  | 
COc1cc(/C=C2\CC/C(=C\c3cc(OC)c(OC)c(OC)c3)C2=O)cc(OC)c1OC | 9 | 5 | 16 | 18 | 12 | 31 |  | inactive
COc1cc(/C=C/C(=O)/C=C/c2ccc(OC3CCCCO3)c(OC)c2)ccc1OC1CCCCO1 (centres undefined) | 16 | 0 | 28 |  | 19 | 28 | 4.28 | 
CCOc1ccc(/C=C/C(=O)/C=C/c2ccc(OCC)cc2)cc1 | 27 | 8 | 36 |  | 7 | 9 | 5.00 | 
C=CCOc1ccc(/C=C/C(=O)/C=C/c2ccc(OCC=C)c(OC)c2)cc1OC | 19 | 13 | 14 | 18 | 9 | 1 |  | 
C=CCOc1ccc(/C=C2\CC/C(=C\c3ccc(OCC=C)c(OC)c3)C2=O)cc1OC | 0 | 10 | 13 | 17 | 14 | 31 |  | 

Now from value to molecule, other results behind:

inhibition [1] [%] | inhibition [2] [%] | inhibition [3] [%] | inhibition [4] [%] | inhibition [5] [%] | inhibition [6] [%] | pIC50 [7] | Compound | inhibition (J774.A1)
14 | 11 | 17 | 26 | 17 | 16 |  | CCOc1ccc(/C=C2\CCC/C(=C\c3ccc(OCC)cc3)C2=O)cc1 | 
23 | 6 | 18 | 8 | 19 | 18 |  | C=CCOc1ccc(/C=C2\CCC/C(=C\c3ccc(OCC=C)cc3)C2=O)cc1 | 
8 | 6 | 7 | 6 | 15 | 16 |  | C=CCOc1ccc(/C=C2\CCC/C(=C\c3ccc(OCC=C)c(OC)c3)C2=O)cc1OC | 
16 | 2 | 35 | 22 | 0 | 4 |  | C=CCOc1ccc(/C=C/C(=O)/C=C/c2ccc(OCC=C)cc2)cc1 | 
15 | 0 | 28 | 10 | 9 | 23 |  | C=CCOc1ccc(/C=C2\CC/C(=C\c3ccc(OCC=C)cc3)C2=O)cc1 | 
